Laboratory results: patent US20250296960A1, “PEPTIDE COMPOSITIONS AND METHODS OF USE THEREOF” (priority 2022, published 2025)
Numbered stars: 1 amine (or outer) side, 2 acyl side, 3 side chain; on linkers, the order of the positions; unused ones are H or OH. Square brackets hold non-standard residues; d marks the D form. Side chains are listed from the residue outwards. Ends that are not written are not given here. Peptide text beside a SMILES is read from it. * marks the point of attachment. C18 = C18 fatty acid (C16-C22 fatty acids conjugated via γGlu/8-amino-3,6-dioxaoctanoic acid spacers); X1 = O=C(O)CCCCCCCCCCCCCCCCC(=O)N[C@@H](CCC(=O)NCCOCCOCC(=O)NCCOCCOCC(=O)NCCN1C(=O)CC(*)C1=O)C(=O)O; Biotin = O=C1N[C@H]2[C@H](CS[C@H]2CCCCC(=O)*)N1; C18 diacid = O=C(O)CCCCCCCCCCCCCCCCC(=O)*; γGlu = O=C(O)[C@H](CCC(=O)[*:2])N[*:1]; AEEA = NCCOCCOCC(=O)O; Aib = CC(C)(N)C(=O)O

Assays:
human GLP-1R = target: T1, human GLP-1R (Homo sapiens, UniProt P43220); test: cAMP assay (HitHunter cAMP) in GLP-1R-expressing CHO-K1 cells (GLP-1R+ cells); format: cell-based
T1 construct: host or cells: CHO-K1
T1 sequence (P43220 24-463): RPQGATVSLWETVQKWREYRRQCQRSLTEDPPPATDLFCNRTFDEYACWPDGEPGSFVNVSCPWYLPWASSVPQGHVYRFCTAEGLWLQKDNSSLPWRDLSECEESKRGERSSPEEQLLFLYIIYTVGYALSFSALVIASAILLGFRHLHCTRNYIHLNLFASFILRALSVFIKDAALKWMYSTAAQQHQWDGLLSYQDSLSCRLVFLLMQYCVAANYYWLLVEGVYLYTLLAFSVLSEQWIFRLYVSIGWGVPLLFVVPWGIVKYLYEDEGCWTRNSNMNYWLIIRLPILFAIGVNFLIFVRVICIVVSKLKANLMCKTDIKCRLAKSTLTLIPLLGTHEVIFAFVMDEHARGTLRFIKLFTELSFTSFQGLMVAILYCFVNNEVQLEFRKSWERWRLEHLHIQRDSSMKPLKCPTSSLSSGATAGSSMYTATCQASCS
How it was run: (§1)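 CHO-K1 cells expressing each receptor were plated overnight, then treated with peptide in cAMP assay buffer for 30 min at 37 °C. cAMP was detected by antibody plus detection solution (1 h) and Solution A (3 h), both at room temperature in the dark. Luminescence was the read-out.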

human GCGR = target: T2, human GCGR (Homo sapiens, UniProt P47871); test: cAMP assay (HitHunter cAMP) in GCGR-expressing CHO-K1 cells (GCGR+ cells); format: cell-based
T2 construct: host or cells: CHO-K1
T2 sequence (P47871 26-477): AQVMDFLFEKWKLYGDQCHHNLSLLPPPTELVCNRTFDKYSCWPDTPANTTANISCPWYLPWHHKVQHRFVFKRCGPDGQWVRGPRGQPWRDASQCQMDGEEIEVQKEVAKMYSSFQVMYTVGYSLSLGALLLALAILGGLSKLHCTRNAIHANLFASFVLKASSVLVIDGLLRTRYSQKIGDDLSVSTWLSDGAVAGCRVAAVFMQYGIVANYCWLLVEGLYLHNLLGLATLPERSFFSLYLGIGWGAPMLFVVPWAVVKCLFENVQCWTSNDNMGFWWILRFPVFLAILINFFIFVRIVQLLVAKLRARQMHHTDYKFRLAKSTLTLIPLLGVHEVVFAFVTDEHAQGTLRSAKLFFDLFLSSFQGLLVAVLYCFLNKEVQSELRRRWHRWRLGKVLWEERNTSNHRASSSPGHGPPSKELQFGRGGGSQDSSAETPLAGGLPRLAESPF
How it was run: as §1

human GIPR = target: T3, human GIPR (Homo sapiens, UniProt P48546); test: cAMP assay (HitHunter cAMP) in GIPR-expressing CHO-K1 cells (GIPR+ cells); format: cell-based
T3 construct: host or cells: CHO-K1
T3 sequence (P48546 22-466): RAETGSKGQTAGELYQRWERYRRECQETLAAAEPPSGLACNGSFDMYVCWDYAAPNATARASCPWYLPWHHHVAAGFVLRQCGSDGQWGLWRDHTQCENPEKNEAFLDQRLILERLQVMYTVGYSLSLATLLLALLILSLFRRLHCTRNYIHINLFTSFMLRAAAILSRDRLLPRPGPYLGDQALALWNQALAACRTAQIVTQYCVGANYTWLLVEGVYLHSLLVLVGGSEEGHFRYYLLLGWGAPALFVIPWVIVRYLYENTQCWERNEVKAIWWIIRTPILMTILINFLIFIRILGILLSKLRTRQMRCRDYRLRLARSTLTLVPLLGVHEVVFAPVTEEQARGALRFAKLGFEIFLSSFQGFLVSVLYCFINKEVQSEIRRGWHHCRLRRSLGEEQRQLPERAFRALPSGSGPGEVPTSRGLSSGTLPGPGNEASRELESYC
How it was run: as §1

[1] = Body weight loss in normal C57BL/6 mice, subcutaneous dosing; format: in vivo; details: for Weight loss (%): normal mice
[2] = In vivo efficacy in mAMLN (NASH) mice, 2 weeks; details: for blood glucose, in words / body weight, in words: 20 nmol/kg s.c. Q2D, 2 weeks; for hepatic triglyceride content, in words / liver weight, in words / mRNA levels of TGF-β1 (inflammation marker) and ACTA2 (fibrosis marker), in words: end of treatment
[3] = Intestinal absorption / PK after intraduodenal administration of oral formulation in rats, serum LC-MS/MS; details: rat, in vivo, rats, single intraduodenal administration, 300 nmol/kg, oral formulation suspension, serum, mean ± SD
Protocol: This study was conducted to evaluate the intestinal absorption of peptides following enteral administration of oral pharmaceutical formulations. The pharmaceutical formulation was administered in a form of suspensions by intraduodenal (ID) injection in rats. SEQ ID_87, 89 and 90 was accurately weighed and dissolved in 10 mM PBS containing polysorbate 80 (pH 7.4, vehicle I). The mixture was vortexed for 5 min to get a clear solution. Then, 2.5 mL of vehicle was added to the mixture and vortexed for 30 min to get homogenous opaque suspension. The composition of Vehicle II was sodium chenodeoxycholate, and propyl gallate in polysorbate 80 in PBS. The animals were not fasted prior to dosing. 0.2˜ 0.4 mL of whole blood was taken from vein at each time point (0, 0.167, 0.5, 1, 2, 4, 8, 24, and 48 hrs after IV or ID administration). The collected whole blood was incubated at room temperature for 20 min and tubes were centrifugated at 13,000 rpm for 10 min at 4° C. The resulting serum 0.1˜ 0.2 mL was transferred into the tube and stored at −70° C. until analysis. The concentrations of peptides in serum were determined by LC-MS/MS analysis. PK parameters were analyzed by non-compartmental analysis using Phoenix WinNonlin 5.0.1. software (Pharsight Corporation, Mountain View, CA, USA).

[4] = Table 19, normalised to activity at GLP-1R
[5] = Table 24, ratio of EC50 of native ligand over peptide
[6] = 20 nmol/kg QD, Weight loss at 48 hr

Row | Molecule | blood glucose, in words [2] | body weight, in words [2] | hepatic triglyceride content, in words [2] | liver weight, in words [2] | mRNA levels of TGF-β1 (inflammation marker) and ACTA2 (fibrosis marker), in words [2] | Weight loss (%) [1, 6] | other results
1 | CC[C@H](C)[C@H](NC(=O)[C@H](CC(C)C)NC(=O)[C@H](Cc1c[nH]c2ccccc12)NC(=O)[C@H](CCC(N)=O)NC(=O)[C@@H](NC(=O)[C@H](Cc1ccccc1)NC(=O)[C@H](CC(=O)O)NC(=O)[C@H](CCCNC(=N)N)NC(=O)[C@H](C)NC(=O)[C@H](CCSC)NC(=O)[C@H](CCSC)NC(=O)[C@H](Cc1ccc(O)cc1)NC(=O)[C@H](CC(=O)O)NC(=O)[C@H](CC(C)C)NC(=O)[C@H](Cc1ccc(O)cc1)NC(=O)[C@H](CCCCN)NC(=O)[C@H](CO)NC(=O)[C@H](Cc1ccc(O)cc1)NC(=O)[C@H](CC(=O)O)NC(=O)[C@H](CO)NC(=O)[C@@H](NC(=O)[C@H](Cc1ccccc1)NC(=O)[C@@H](NC(=O)CNC(=O)[C@H](CCC(N)=O)NC(=O)C(C)(C)NC(=O)[C@@H](N)Cc1ccc(O)cc1)[C@@H](C)O)[C@@H](C)O)C(C)C)C(=O)N[C@@H](CCC(=O)O)C(=O)NCC(=O)NCC(=O)N1CCC[C@H]1C(=O)N[C@@H](CO)C(=O)N[C@@H](CO)C(=O)NCC(=O)N[C@@H](C)C(=O)N1CCC[C@H]1C(=O)N1CCC[C@H]1C(=O)N1CCC[C@H]1C(=O)N[C@@H](CO)C(=O)N[C@@H](CSC1CC(=O)N(CCNC(=O)COCCOCCNC(=O)COCCOCCNC(=O)CC[C@H](NC(=O)CCCCCCCCCCCCCCCCC(=O)O)C(=O)O)C1=O)C(N)=O (stereo partly shown) [5-1A] (H-Y[Aib]QGTFTSDYSKYLDYMMARDFVQWLIEGGPSSGAPPPSC(X1)-NH2; N-terminus assumed) | reduce blood glucose | reduce body weight | reduce hepatic triglyceride content | reduce liver weight | reduce both TGF-β1 and ACTA2 |  | Activity relative to STD peptide (%), GLP-1R (human GLP-1R; Table 18): 187%; Activity relative to GLP-1 (%), GLP-1R (human GLP-1R; [4]): 100%; Relative % to native ligand, GLP-1R (human GLP-1R; [5]): 187%; Ratio vs. GLP-1R, GLP-1R (human GLP-1R; Table 25): 100; Relative % to non-lipidated peptide, GLP-1R (human GLP-1R; Table 26): 159%; Activity relative to STD peptide (%), GCGR (human GCGR; Table 18): 24%; Activity relative to GLP-1 (%), GCGR (human GCGR; [4]): 13%; Relative % to native ligand, GCGR (human GCGR; [5]): 24%; Ratio vs. GLP-1R, GCGR (human GCGR; Table 25): 13; Relative % to non-lipidated peptide, GCGR (human GCGR; Table 26): 0%; Activity relative to STD peptide (%), GIPR (human GIPR; Table 18): 1%; Activity relative to GLP-1 (%), GIPR (human GIPR; [4]): 1%; Relative % to native ligand, GIPR (human GIPR; [5]): 1%; Ratio vs. GLP-1R, GIPR (human GIPR; Table 25): 1; Relative % to non-lipidated peptide, GIPR (human GIPR; Table 26): 11%; body weight loss effect, in words ([1]; Example 5, 20 nmol/kg s.c. QD, 4 days): Superior body weight loss effects; Weight loss (%) ([1]; 10 nmol/kg QD, after 48 or 72 hours): 20.0 ± 2.1%; Weight loss (%) ([1]; 20 nmol/kg QD, after 48 or 72 hours): 18.9 ± 2.0%
2 | HAibQGT FTSDY SK*YLD YMMARDFVQWLIEGGPSSGAPPPS (H[Aib]QGTFTSDYSK([AEEA-AEEA-γGlu-C18])YLDYMMARDFVQWLIEGGPSSGAPPPS-NH2) [5D, K* = lysine lipidated with 2OEG-γGlu-C18] | reduce blood glucose | reduce body weight | reduce hepatic triglyceride content | reduce liver weight | reduce both TGF-β1 and ACTA2 | 19.4 ± 2.2% | 
3 | YAibQGT FTSDY SK*YLD YMMQRDFVQWLIEGGPSSGAPPPS (Y[Aib]QGTFTSDYSK([AEEA-AEEA-γGlu-C18])YLDYMMQRDFVQWLIEGGPSSGAPPPS-NH2) [5-2D, K* = lysine lipidated with 2OEG-γGlu-C18] | reduce blood glucose | reduce body weight | reduce hepatic triglyceride content | reduce liver weight | reduce both TGF-β1 and ACTA2 | 16.6 ± 0.9% | 
4 | YAibQGT FTSDY SK*LLD YMMQRDFVQWLLEGGPSSGAPPPS (Y[Aib]QGTFTSDYSK([AEEA-AEEA-γGlu-C18])LLDYMMQRDFVQWLLEGGPSSGAPPPS-NH2) [5-3D, K* = lysine lipidated with 2OEG-γGlu-C18] | reduce blood glucose | reduce body weight | reduce hepatic triglyceride content | reduce liver weight | reduce both TGF-β1 and ACTA2 | 7.6 ± 1.3% | 
5 | CSCC[C@H](NC(=O)[C@H](Cc1ccc(O)cc1)NC(=O)[C@H](CC(=O)O)NC(=O)[C@H](CC(C)C)NC(=O)[C@H](CC(C)C)NC(=O)[C@H](CCCCNC(=O)COCCOCCNC(=O)COCCOCCNC(=O)CC[C@H](NC(=O)CCCCCCCCCCCCCCCCC(=O)O)C(=O)O)NC(=O)[C@H](CO)NC(=O)[C@H](Cc1ccc(O)cc1)NC(=O)[C@H](CC(=O)O)NC(=O)[C@H](CO)NC(=O)[C@@H](NC(=O)[C@H](Cc1ccccc1)NC(=O)[C@@H](NC(=O)CNC(=O)[C@H](CCC(N)=O)NC(=O)C(C)(C)NC(=O)[C@@H](N)Cc1ccc(O)cc1)[C@@H](C)O)[C@@H](C)O)C(=O)N[C@@H](CCSC)C(=O)N[C@@H](CCC(N)=O)C(=O)N[C@@H](CCCNC(=N)N)C(=O)N[C@@H](CC(=O)O)C(=O)N[C@@H](Cc1ccccc1)C(=O)N[C@H](C(=O)N[C@@H](CCCCNC(=O)CCCC[C@@H]1SC[C@@H]2NC(=O)N[C@@H]21)C(=O)N[C@@H](Cc1c[nH]c2ccccc12)C(=O)N[C@@H](CC(C)C)C(=O)N[C@@H](CC(C)C)C(=O)N[C@@H](CCC(=O)O)C(=O)NCC(=O)NCC(=O)N1CCC[C@H]1C(=O)N[C@@H](CO)C(=O)N[C@@H](CO)C(=O)NCC(=O)N[C@@H](C)C(=O)N1CCC[C@H]1C(=O)N1CCC[C@H]1C(=O)N1CCC[C@H]1C(=O)N[C@@H](CO)C(N)=O)C(C)C [SEQ ID_89] (H-Y[Aib]QGTFTSDYSK([AEEA-AEEA-γGlu-C18 diacid])LLDYMMQRDFVK(Biotin)WLLEGGPSSGAPPPS-NH2; N-terminus and C-terminus assumed) |  |  |  |  |  |  | AUC(0-inf) ([3]; read-out: AUCinf): 2790 ng·h/mL; Cmax ([3]; read-out: Cmax): 332 ± 124 ng/mL; MRT inf ([3]; read-out: MRTinf): 9.89 ± 3.91 h; Tmax ([3]; read-out: Tmax): 0.43 ± 0.15 h; half-life ([3]; read-out: t1/2 (converted)): 7.24 ± 2.05 h
6 | YAibQGT FTSDY SK*YLD YMMARDFVQWLIEGGPSSGAPPPS (Y[Aib]QGTFTSDYSK([AEEA-AEEA-γGlu-C18])YLDYMMARDFVQWLIEGGPSSGAPPPS-NH2) [5-1D, K* = lysine lipidated with 2OEG-γGlu-C18] | reduce blood glucose | reduce body weight | reduce hepatic triglyceride content | reduce liver weight | reduce both TGF-β1 and ACTA2 | 16.7 ± 1.3% | 
